Source: US6582899B1, “Methods for identifying agents that cause a lethal phenotype, and agents thereof” (Deltagen Proteomics, Inc., priority 2000, dated 2003)
Where no end group is shown, it is not given here.

Key:
[1] = system: HT29 colon cancer cells; test: HT29 floater assay (negative selection); format: cell-based; details: for level of floaters relative to background: Sort VI clones, FIG. 10
Protocol: HT29 cells were tested for feasibility in the floater cell assay as follows. Briefly, six flasks were inoculated with 6.25×10^5 HT29 cells/flask on Day 0. On Day 1, after the cells had been allowed to adhere to the solid support, two of these flasks were infected with retroviral supernatant containing the retroviral vector pVT324, which includes a selectable drug resistant marker (e.g. neomycin), and which constitutively expresses a green fluorescent protein. Of the remaining four flasks, two were mock infected (i.e. exposed to all of the same reagents/conditions as flasks 1 and 2, minus the retrovirus, see “Example 3C”) and two were left undisturbed. On Day 2, this procedure was repeated (i.e. a double infection). On Day 3 (and subsequently on Day 5) one flask was selected from each of the three groups and processed by separating and counting the floater and adherent cell populations. In the case of the floater cell population, the media was collected, centrifuged at 200×g for 10 minutes, and resuspended in PBS prior to removing a sample for counting on a hemocytometer. For the adherent cell population, cells were first removed from the flask by trypsinization, centrifuged, and then processed for analysis in a fashion analogous to the floater cells. To determine the inherent background level of floater cells present in the population, the ratio of the number of floater cells to the total number of cells (adherent cells+floater cells) was analyzed on both the Day 3 and Day 5 flasks that had not been manipulated. These numbers were compared with the analogous numbers taken from infected and mock-infected flasks to determine whether the retrovirus or transfection procedures altered background floater rates. To determine the susceptibility of HT29 cells to retroviral infection, the fraction of cells that expressed GFP in pVT324 infected flasks was calculated using flow cytometry.
Twenty T175 flasks were seeded with 2.2×10^6 HT29 cells/flask in McCoy's 5A media (Gibco BRL) modified with 10% FBS. On Day 1, each flask was infected (4 μg/ml polybrene, 50% volume) with a retroviral supernatant containing a commercially obtained brain cDNA library (“Example Three” above). On Day 2 the media was changed. On Day 3 both the floater and adherent cell populations were collected (separately) from the twenty flasks. Approximately 652,500 floaters were isolated from a theoretical background of 4.2×10^7 adherents (1.5% floaters) and frozen down for future studies. […] Additional floater cells were then collected Day 5, where the collection and counting procedures were repeated and some 7.8×10^6 floaters and 7.6×10^8 adherents were counted (1.03% floaters). […] The floater populations of Days 3 and 5 were then combined and readied for a genomic DNA prep using a QIAamp kit (Qiagen) following standard procedures. Briefly, some 9×10^6 floater cells in PBS were lysed to release gDNA. This material was passed over a QIAamp column that was then washed several times to remove protein and RNA contaminants. Twenty-seven micrograms of genomic DNA were then eluted from the columns with dH2O and treated with RNAse A to eliminate any RNA contamination. This gDNA was then subjected to PCR procedures to amplify the library sequences encoded therein. […]

[2] = system: ecdysone receptor (pVgRXR); test: Induction of GFP fluorescence from ecdysone-regulated vector pBIGFII in ECR293 cells; format: cell-based; details: 5 μM, cells containing pBIGFII and pVgRXR
Excerpt: As an alternative to the constitutive pCLMFG vector, an inducible construct that can be regulated by ecdysone was constructed as follows. The PmII/XhoI fragment from pVT324 was inserted into the MCS of the PIND vector (Invitrogen). This product was then digested with BgIII, blunt-ended and inserted into a pBabe-K-ras vector (pVT313-based) that had been digested with BamHI/XhoI and blunted (Klenow Fragment). The resulting vector was designated pBabe-Forward-1. The XbaI fragment of pVT324 was then inserted into the compatible site of pBabe-Forward-1. The resulting vector was designated pBIGFII. Vector pBIGFII was subsequently transfected into cells (ECR293, Invitrogen) that contain an endogenous copy of the ecdysone receptor (pVgRXR).

[3] = target: epitope in the mitochondrial membrane that is exposed only in cells that are undergoing apoptosis (Jurkat cells, permeabilized with digitonin); test: flow cytometry, digitonin-permeabilized Jurkat cells, 21 hours in anti-FAS antibody (1 ug/ml)
[4] = target: epitope in the mitochondrial membrane that is exposed only in cells that are undergoing apoptosis (Jurkat cells, permeabilized with digitonin); test: flow cytometry, digitonin-permeabilized Jurkat cells, 0 hours in anti-FAS antibody
[5] = system: WM35 (melanoma) cells; test: Caspase-3 fluorescent substrate (Rhodamine 123-YVAD) and PI staining of floater cells, FACS; format: cell-based; details: PI-minus floater cells, 15 μg/ml, 18-24 hours after induction
Protocol: WM35 cells were passed one day prior to induction of apoptosis and incubated for 24 hrs to allow the cells to attach to the substrate. The media was subsequently removed, the remaining adherent cells washed 1× with PBS, and subsequently exposed to Cisplatin (15 μg/ml) in fresh media. Eighteen to twenty-four hours after the induction of apoptosis, the floater cell population was collected, pelleted by centrifugation (400×g), and resuspended at 3×10^6 cells/ml in PBS. Samples were then split into four groups: (1) uninduced minus Rhodamine 123-YVAD (substrate), (2) uninduced plus substrate, (3) induced minus substrate, and (4) induced plus substrate. For samples exposed to Rhodamine 123-YVAD substrate, 50 ul of a pre-warmed (37° C.) cell suspension was combined with 25 ul of a stock substrate solution (Cellprobe). Samples were incubated for 60 minutes at 37° C. and then placed on ice prior to FACS analysis. In addition to caspase-3 staining, a replicate of each sample was stained with propidium iodide to determine the percentage of cells within the population whose membranes had been compromised and the overlap between PI and caspase-3 staining. […] Emission spectra were read at 515-535 nm wavelength using the FL1 (PMT2) 525 nm blue filter.

[6] = system: HS294T cells; test: Ethidium homodimer/Syto16 staining for cell death and nuclear morphology; format: cell-based
Protocol: (§1) Two cell lines, WM35 and HS294T, were plated out (50,000 cells per well, 24 well plate) and allowed to adhere. After 24 hours, the cells were treated for 4 hours with varying concentrations (5-80 μM) of Cisplatin (cis-platinum (II) diammine dichloride), a well-known chemotherapeutic agent that induces apoptosis. […] Adherent cell populations were then lifted from the solid support by trypsinization, centrifuged (400×g), and resuspended in PBS (0.125 ml). To observe the nuclear morphology and percent cell death in the WM35 and HS294T cell lines, cells from both floater and adherent populations were stained concurrently with Syto16 and ethidium homodimer (125 ul of cell suspension+2.5 ul 62.5 uM Syto16+[…] 100 ug/ml ethidium homodimer, 10 minutes at 37° C.). Ethidium homodimer is a membrane impermeant compound that fluoresces in the 617 nm range when it is intercalated with chromosomal DNA. Thus, in a mixed cell population containing both living and dead/dying cells, only those cells whose membranes have been compromised will stain with ethidium homodimer. In contrast, Syto 16 (Molecular Probes) is a membrane permeant dye that fluoresces in the 518 nm range when associated with chromosomal DNA. Together, these two dyes can be used to observe and distinguish the nuclear morphology in a population containing both living and dead/dying cells.

[7] = system: WM35 cells; test: as above; format: cell-based
Protocol: as §1

[8] = system: HT29 cells; test: Induction of apoptosis in HT29 cells (detachment, nuclear morphology); format: cell-based; details: after 48 hours of treatment
[9] = system: T47D cells; test: Kill curve in T47D cells (cell number after 5 days); format: cell-based
Protocol: Approximately 250,000 cells were seeded into each well of a six well plate. Cells were then grown in media containing camptothecin of varying concentrations (0-10 uM). After 5 days, the number of cells remaining in each of the camptothecin-treated wells was compared with untreated controls. From these experiments, it was determined that camptothecin concentrations ranging from 1-4 nM had no effect on T47D cell number over the course of the 5 days of treatment. […] In order to determine whether this level of treatment is concomitantly increasing the number of floaters in the population, several flasks are seeded with T47D cells and then treated with 1-4 nM concentrations of camptothecin. After a period of three to five days, the media is collected and the number of floater cells are counted and compared to the total number of cells in the flask (floaters+adherents).

[10] = system: HuVECs 9F0293 cells; test: Time course of detachment and PI staining of HuVECs (9F0293); format: cell-based, Human; details: 2 ug/ml
Protocol: To determine the time course in which dead and/or dying HuVECs detach from the solid support in response to a cytotoxic agent, 9F0293 cells were plated and subsequently treated with puromycin (2 ug/ml). Both floater and adherent cell populations were then collected at varying times (t=4, 7, 9, 16, 20, and 24 hours) and analyzed to determine (a) the percent PI^+ cells in the floater population and (b) the fraction of cells which became floaters. […] The fraction of floaters that stained with PI (PI^+ population) increased with time.

[11] = floater population, 5-80 μM for 4 hours, 18-24 hrs later

## 0328: cytotoxic agent isolated from clone 0328, SEQ ID NO: 23 (XXAVAWLGSTGMTCGAQRLRSLR; X: residue not identified in the source) [compound 0328]
[1]
  level of floaters relative to background: increased levels of floaters that were statistically significant relative to background
[1]; individual clone reintroduced into HT29 cells
  floater rate: 2%

## CC(C)CC[C@@H](O)[C@](C)(O)[C@H]1CC[C@@]2(O)C3=CC(=O)[C@@H]4C[C@@H](O)[C@@H](O)C[C@]4(C)[C@H]3CC[C@]12C [ponesterone A]
[2]
  increase of the level of fluorescence: approximately thirty

## Apo2.7 monoclonal antibody (Coulter Immunotech), fluorescent R-phycoerythrin-cyanin labeled
[3]
  percent of population labeled: 81%
[4]
  percent of population labeled: 4%

## N.N.[Cl-].[Cl-].[Pt+2] [Cisplatin, cis-platinum (II) diammine dichloride]
[5]
  caspase-3 positive cells: 94.6%
[6]; adherent population
  ethidium homodimer staining of adherent cell population: < 10%
[6]; ethidium homodimer stained floater cells, fluorescent microscopy
  cells showing condensed or fragmented nuclei: < 20%
[6]; [11]
  floater cells stained with ethidium homodimer: greater than 50%
[7]; adherent population
  ethidium homodimer staining of adherent cell population: < 10%
[7]; [11]
  ethidium homodimer staining of floaters: 45-50%
[7]; floaters, higher concentrations
  condensed or fragmented nuclei in floaters: 40-50%

## CSc1ccc(/C=C2/C(C)=C(CC(=O)O)c3cc(F)ccc32)cc1 [sulindac sulfide]
[8]
  detachment and apoptotic morphology: majority of the cells had detached from the dish and showed typical apoptotic morphology

## CC[C@@]1(O)C(=O)OCc2c1cc1n(c2=O)Cc2cc3ccccc3nc2-1 [camptothecin]
[9]; 10 nM, 5 days
  cell number relative to the untreated control: roughly one third
[9]; 5 days of treatment
  concentrations with no effect on cell number: 1 to 4 nM

## COc1ccc(C[C@H](N)C(=O)N[C@H]2[C@@H](O)[C@H](n3cnc4c(N(C)C)ncnc43)O[C@@H]2CO)cc1 [puromycin]
[10]
  time point at which the majority of cells detached: 16 h
[10]; by 20 hours
  floater cells in the PI+ gate: nearly all

B1: 0195: cytotoxic agent isolated from clone 0195, SEQ ID NO: 22 (protein)
chain: PEILSRSHLLLAGQTLIGVVAMVVEAEGEEDPWAVEAMEVVAVVVVAEEDFPVEVVAVEDSSELVTGSVLIPPVRI
[1]
  level of floaters relative to background: increased levels of floaters that were statistically significant relative to background

B2: BID: BID clone among the Sort VI clones tested in the HT29 floater assay (FIG. 10) (protein, UniProt P55957 1-195, looked up)
BH3-interacting domain death …: MDCEVNNGSSLRDECITNLLVFGFLQSCSDNSFRRELDALGHELPVLAPQWEGYDELQTDGNRSSHSRLGRIEADSESQEDIIRNIARHLAQVGDSMDRSIPPGLVNGLALQLRNTSRSEEDRNRDLATALEQLLQAYPRDMEKEKTMLVLALLLAKKVASHTPSLLRDVFHTTVNFINQNLRTYVRSLARNGMD
[1]
  level of floaters relative to background: increased levels of floaters that were statistically significant relative to background
